This is an account of results in the NIST ThermoML archive (doi:10.1021/acs.jced.5b00444).

This data set in a line: molar enthalpy of vaporization or sublimation. The note with it: 298 K; Liquid; Chromatographic retention time.

Structures are written as SMILES. ± gives the expanded uncertainty stated by the source.

In the case of `CCCCOC(=O)c1ccccc1C(=O)OCc1ccccc1` [benzyl butyl 1,2-benzenedioate], the molar enthalpy was 109.8 ± 0.2 kJ/mol.
Turning to `CCCCC(CC)COC(=O)c1ccccc1C(=O)OCC(CC)CCCC` (configuration not stated) [bis(2-ethylhexyl) 1,2-benzenedicarboxylate], the molar enthalpy worked out at 116.9 ± 0.1 kJ/mol.
For `CCCCOC(=O)c1ccccc1C(=O)OCCCC` [dibutyl phthalate], the molar enthalpy stood at 99.3 ± 0.1 kJ/mol.
Consider `CCOC(=O)c1ccccc1C(=O)OCC` [diethyl phthalate], for which the molar enthalpy amounted to 88.6 ± 0.1 kJ/mol.
Consider `COC(=O)c1ccccc1C(=O)OC` [dimethyl 1,2-benzenedicarboxylate], for which the molar enthalpy worked out at 84.2 ± 0.1 kJ/mol.
Regarding `CCCCCCCCOC(=O)c1ccccc1C(=O)OCCCCCCCC` [dioctyl 1,2-benzenedicarboxylate], the molar enthalpy came to 122.7 ± 0.2 kJ/mol.
Consider `CCCCCCCCCCCCCCCCCCCCCC` [docosane], for which the molar enthalpy worked out at 110 ± 1 kJ/mol.
Regarding `CCCCCCCCCCCCCCCCCCCC` [eicosane], the molar enthalpy worked out at 103.9 ± 0.1 kJ/mol.
Consider `CCCCCCCCCCCCCCCCCC(=O)OCC` [ethyl octadecanoate], for which the molar enthalpy amounted to 109.3 ± 0.5 kJ/mol.
`CCCCCCCCCCCCCCCCCCCCCCCCCC` [hexacosane]: the molar enthalpy stood at 122 ± 1 kJ/mol.
Next, `CCCCCCCCCCCCCCCCCCCC(=O)OC` [methyl eicosanoate]: 111.1 ± 0.1 kJ/mol; `CCCCCCCCCCCCCCCCCCCCC(=O)OC` [methyl heneicosanoate]: 116.3 ± 0.1 kJ/mol; `CCCCCCCCCCCCCCCC(=O)OC` [methyl hexadecanoate]: 101.8 ± 0.1 kJ/mol.
For the compound `CCCCCCCCCCCCCCCCCC(=O)OC` [methyl octadecanoate], the molar enthalpy turned out to be 107.9 ± 0.1 kJ/mol.
`CCCCCCCCCCCCCCCCCCCCCCCCCCCC` [octacosane]: the molar enthalpy was 128.6 ± 0.5 kJ/mol.
Then `CCCCCCCCCCCCCCCCCCCCCCCCC` [pentacosane], with 119.1 ± 0.1 kJ/mol; and `CCCCCCCCCCCCCCCCCCCCCCCC` [tetracosane], with 116.1 ± 0.1 kJ/mol.
